Data set [1] can be described thus: Solubility in 100 mM glycylglycine buffer at pH 3.0 incubated for 18 hrs by UPLC analysis. Type of data set: physicochemical.
A short description of data set [2]: Solubility in 100 mM bistrispropane buffer at pH 6.5 incubated for 18 hrs by UPLC analysis. Type of data set: physicochemical.
Data set [3] has as its target T1, Calcitonin receptor (Homo sapiens, UniProt P30988).
T1 sequence (P30988 whole entry): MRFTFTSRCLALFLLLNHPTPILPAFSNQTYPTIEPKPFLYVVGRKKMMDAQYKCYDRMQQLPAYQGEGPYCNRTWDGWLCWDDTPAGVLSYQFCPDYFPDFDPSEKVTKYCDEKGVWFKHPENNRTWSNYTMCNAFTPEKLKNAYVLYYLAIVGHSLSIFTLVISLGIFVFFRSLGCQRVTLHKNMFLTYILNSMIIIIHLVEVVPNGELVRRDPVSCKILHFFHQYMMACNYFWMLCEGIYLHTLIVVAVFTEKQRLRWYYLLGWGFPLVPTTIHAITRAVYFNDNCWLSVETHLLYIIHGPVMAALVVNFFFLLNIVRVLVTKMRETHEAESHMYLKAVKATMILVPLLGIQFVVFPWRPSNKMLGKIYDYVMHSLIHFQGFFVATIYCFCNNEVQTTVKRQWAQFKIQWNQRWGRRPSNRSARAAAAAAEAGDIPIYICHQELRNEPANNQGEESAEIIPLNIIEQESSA
The data set can be described thus: Agonist activity at human calcitonin receptor expressed in BHK570 cells assessed as increase in intracellular cAMP concentration incubated for 3 hrs in absence of albumin by CRE luciferase reporter gene assay. Type of data set: functional, cell-based.

The target of data set [4] is T2, Amylin receptor AMY3; CALCR/RAMP3 (Homo sapiens, UniProt O60896+P30988).
T2 sequence (P30988 whole entry): T1 sequence (P30988 whole entry)
T2 sequence (O60896 whole entry): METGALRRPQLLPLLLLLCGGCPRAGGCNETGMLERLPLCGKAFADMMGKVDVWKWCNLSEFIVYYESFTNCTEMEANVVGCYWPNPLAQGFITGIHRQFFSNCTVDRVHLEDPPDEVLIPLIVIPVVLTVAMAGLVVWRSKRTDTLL
The data set can be described thus: Agonist activity at human amylin receptor expressed in BHK570 cells co-expressing RAMP3 assessed as increase in intracellular cAMP concentration incubated for 3 hrs in presence of 10% FBS by CRE luciferase reporter gene assay. Type of data set: functional, cell-based.

The nature of data set [5]: Stability in pH 7.5 buffer assessed as compound recovery at 1 uM by Thioflavin T based fluorescence assay. Type of data set: physicochemical. Particulars: read-out: Drug recovery.
A short description of data set [6]: Solubility in 100 mM bistrispropane buffer at pH 7.0 incubated for 18 hrs by UPLC analysis. Type of data set: physicochemical.
Data set [7] addresses T1, Calcitonin receptor. The data set is described as follows: Agonist activity at human calcitonin receptor expressed in BHK570 cells assessed as increase in intracellular cAMP concentration incubated for 3 hrs in presence of 10% FBS by CRE luciferase reporter gene assay. Type of data set: functional, cell-based.
Data set [8] in a line: Solubility in 100 mM glycylglycine buffer at pH 5.0 incubated for 18 hrs by UPLC analysis. In kind it is physicochemical.
A short description of data set [9]: Stability in pH 7.5 buffer assessed as lag time for fibril formation at 1 uM by Thioflavin T based fluorescence assay. Type of data set: physicochemical. Particulars: pH 7.5, 1 µM.
Data set [10] in a line: Solubility in 100 mM bistrispropane buffer at pH 8.0 incubated for 18 hrs by UPLC analysis. Type of data set: physicochemical.
Data set [11] can be described thus: Solubility in 100 mM bistrispropane buffer at pH 6.0 incubated for 18 hrs by UPLC analysis. Type of data set: physicochemical.
Data set [12] addresses T2, Amylin receptor AMY3; CALCR/RAMP3. The data set is described as follows: Agonist activity at human amylin receptor expressed in BHK570 cells co-expressing RAMP3 assessed as increase in intracellular cAMP concentration incubated for 3 hrs in absence of albumin by CRE luciferase reporter gene assay. In kind it is functional, cell-based.
Data set [13] can be described thus: Solubility in 100 mM bistrispropane buffer at pH 7.5 incubated for 18 hrs by UPLC analysis. In kind it is physicochemical.
A short description of data set [14]: Solubility in 100 mM glycylglycine buffer at pH 4.0 incubated for 18 hrs by UPLC analysis. In kind it is physicochemical.
The target in data set [15] is T2, Amylin receptor AMY3; CALCR/RAMP3. The data set is described as follows: Displacement of [125I]-labeled rat amylin from human amylin receptor expressed in BHK tkts13 whole cells co-expressing RAMP3 incubated for 60 mins by scintillation proximity assay. Type of data set: cell-based.

Numbered stars: 1 amine (or outer) side, 2 acyl side, 3 side chain; on linkers, the order of the positions; unused ones are H or OH. Peptide text beside a SMILES is read from it. * marks the point of attachment. C20 diacid = O=C(O)CCCCCCCCCCCCCCCCCCC(=O)*; γGlu = O=C(O)[C@H](CCC(=O)[*:2])N[*:1]; AEEA = NCCOCCOCC(=O)O

On to `CC(C)C[C@H](NC(=O)[C@H](C)NC(=O)[C@H](C)NC(=O)[C@@H](NC(=O)[C@H](CO)NC(=O)[C@H](CC(C)C)NC(=O)[C@H](CCC(=O)O)NC(=O)[C@H](CO)NC(=O)[C@H](C)NC(=O)COCCOCCNC(=O)COCCOCCNC(=O)COCCOCCNC(=O)COCCOCCNC(=O)COCCOCCNC(=O)CC[C@H](NC(=O)CCCCCCCCCCCCCCCCCCC(=O)O)C(=O)O)[C@@H](C)O)C(=O)NCC(=O)N[C@@H](CCCNC(=N)N)C(=O)N[C@@H](CC(C)C)C(=O)N[C@@H](CO)C(=O)N[C@@H](C)C(=O)N[C@@H](CCC(=O)O)C(=O)N[C@@H](CC(C)C)C(=O)N[C@@H](Cc1cnc[nH]1)C(=O)N[C@@H](CCC(=O)O)C(=O)N[C@@H](CC(C)C)C(=O)N[C@@H](C)C(=O)N[C@H](C(=O)N[C@@H](CC(C)C)C(=O)N1CCC[C@H]1C(=O)N[C@@H](CCCNC(=N)N)C(=O)N[C@H](C(=O)N[C@@H](CCC(=O)O)C(=O)N[C@H](C(=O)NCC(=O)N[C@@H](CO)C(=O)NCC(=O)N[C@@H](CO)C(=O)N1CCC[C@H]1C(N)=O)[C@@H](C)O)[C@@H](C)O)[C@@H](C)O` ({C20 diacid-γGlu-AEEA-AEEA-AEEA-AEEA-AEEA}-ASELSTAALGRLSAELHELATLPRTETGSGSP-NH2), for which the solubility at 18 h in data set [1], in data set [2], in data set [6], in data set [8], in data set [10] and in data set [11] was at least 200 µM throughout. The solubility at 18 h in [13] and in [14] was at least 200 µM each time. Further, the EC50 on Calcitonin receptor [3] was 0.01 nM; in data set [4], 0.066 nM; on Calcitonin receptor [7], 0.027 nM; in [12] it was 0.015 nM. The remaining at 1 µM in data set [5] turned out to be 100%. Moreover, the Time in data set [9] is over 45 h.

As to `CC(C)C[C@H](NC(=O)[C@H](C)NC(=O)[C@H](C)NC(=O)[C@@H](NC(=O)[C@H](CO)NC(=O)[C@H](CC(C)C)NC(=O)[C@H](CCC(=O)O)NC(=O)[C@H](CO)NC(=O)[C@H](C)NC(=O)CC[C@H](NC(=O)CCCCCCCCCCCCCCCCCCC(=O)O)C(=O)O)[C@@H](C)O)C(=O)NCC(=O)N[C@@H](CCCCN)C(=O)N[C@@H](CC(C)C)C(=O)N[C@@H](CO)C(=O)N[C@@H](C)C(=O)N[C@@H](CCC(=O)O)C(=O)N[C@@H](CC(C)C)C(=O)N[C@@H](Cc1cnc[nH]1)C(=O)N[C@@H](CCC(=O)O)C(=O)N[C@@H](CC(C)C)C(=O)N[C@@H](C)C(=O)N[C@H](C(=O)N[C@@H](Cc1ccc(O)cc1)C(=O)N1CCC[C@H]1C(=O)N[C@@H](CCCCN)C(=O)N[C@H](C(=O)N[C@@H](CCC(=O)O)C(=O)N[C@H](C(=O)NCC(=O)N[C@@H](CO)C(=O)NCC(=O)N[C@@H](CO)C(=O)N[C@@H](Cc1ccc(O)cc1)C(N)=O)[C@@H](C)O)[C@@H](C)O)[C@@H](C)O` ({C20 diacid-γGlu}-ASELSTAALGKLSAELHELATYPKTETGSGSY-NH2), the solubility at 18 h in [1], in [2], in data set [6], in data set [8], in [10] and in [11] was at least 200 µM each time. The solubility at 18 h in data set [13] and in data set [14] was at least 200 µM in each case. In addition, the half-maximal effective concentration (EC50) on Calcitonin receptor [3] is 0.037 nM; in data set [4], 0.093 nM; at Calcitonin receptor [7], 0.073 nM; in data set [12] it was 0.051 nM. For the same compound, in [5], the remaining at 1 µM amounted to 100%. In addition, the concentration for half-maximal inhibition (IC50) in [15] was 0.588 nM. Further, the Time in data set [9] was 0 h.

`CC(C)C[C@H](NC(=O)[C@H](C)NC(=O)[C@H](C)NC(=O)[C@@H](NC(=O)[C@H](CO)NC(=O)[C@H](CC(C)C)NC(=O)[C@H](CCC(=O)O)NC(=O)[C@H](CO)NC(=O)[C@H](C)NC(=O)CC[C@H](NC(=O)CCCCCCCCCCCCCCCCCCC(=O)O)C(=O)O)[C@@H](C)O)C(=O)NCC(=O)N[C@@H](CCCNC(=N)N)C(=O)N[C@@H](CC(C)C)C(=O)N[C@@H](CO)C(=O)N[C@@H](C)C(=O)N[C@@H](CCC(=O)O)C(=O)N[C@@H](CC(C)C)C(=O)N[C@@H](Cc1cnc[nH]1)C(=O)N[C@@H](CCC(=O)O)C(=O)N[C@@H](CC(C)C)C(=O)N[C@@H](C)C(=O)N[C@H](C(=O)N[C@@H](CC(C)C)C(=O)N1CCC[C@H]1C(=O)N[C@@H](CCCNC(=N)N)C(=O)N[C@H](C(=O)N[C@@H](CCC(=O)O)C(=O)N[C@H](C(=O)NCC(=O)N[C@@H](CO)C(=O)NCC(=O)N[C@@H](CO)C(=O)N[C@@H](Cc1ccccc1)C(N)=O)[C@@H](C)O)[C@@H](C)O)[C@@H](C)O` ({C20 diacid-γGlu}-ASELSTAALGRLSAELHELATLPRTETGSGSF-NH2): the solubility at 18 h in [1], in data set [2], in data set [6], in data set [10], in [11] and in data set [13] was at least 200 µM in each case. For the same compound, the solubility at 18 h in [14] is at least 200 µM. Moreover, the EC50 is 0.04 nM on Calcitonin receptor [3], 0.094 nM in data set [4], 0.073 nM on Calcitonin receptor [7] and 0.05 nM in [12]. Moreover, in [5], the remaining at 1 µM stood at 100%. Moreover, the concentration for half-maximal inhibition (IC50) in [15] is 1.36 nM. The Time in [9] is over 45 h.

With `CC(C)C[C@H](NC(=O)[C@H](C)NC(=O)[C@H](C)NC(=O)[C@@H](NC(=O)[C@H](CO)NC(=O)[C@H](CC(C)C)NC(=O)[C@H](CCC(=O)O)NC(=O)[C@H](CO)NC(=O)[C@H](C)NC(=O)CC[C@H](NC(=O)CCCCCCCCCCCCCCCCCCC(=O)O)C(=O)O)[C@@H](C)O)C(=O)NCC(=O)N[C@@H](CCCNC(=N)N)C(=O)N[C@@H](CC(C)C)C(=O)N[C@@H](CO)C(=O)N[C@@H](C)C(=O)N[C@@H](CCC(=O)O)C(=O)N[C@@H](CC(C)C)C(=O)N[C@@H](Cc1cnc[nH]1)C(=O)N[C@@H](CCC(=O)O)C(=O)N[C@@H](CC(C)C)C(=O)N[C@@H](C)C(=O)N[C@H](C(=O)N[C@@H](CC(C)C)C(=O)N1CCC[C@H]1C(=O)N[C@@H](CCCNC(=N)N)C(=O)N[C@H](C(=O)N[C@@H](CCC(=O)O)C(=O)N[C@H](C(=O)NCC(=O)N[C@@H](CO)C(=O)NCC(=O)N[C@@H](CO)C(=O)NCC(N)=O)[C@@H](C)O)[C@@H](C)O)[C@@H](C)O` ({C20 diacid-γGlu}-ASELSTAALGRLSAELHELATLPRTETGSGSG-NH2), the solubility at 18 h in data set [1], in data set [2], in [6], in data set [8], in data set [10] and in data set [11] was at least 200 µM in each case. In addition, the solubility at 18 h in data set [13] and in [14] was at least 200 µM in each case. The EC50 was 0.066 nM on Calcitonin receptor [3], 0.435 nM in data set [4], 0.239 nM at Calcitonin receptor [7] and 0.142 nM in data set [12]. For the same compound, in data set [5], the remaining at 1 µM is 100%. In addition, the IC50 in data set [15] was 4.36 nM. Further, the Time in [9] was over 45 h.
